From patent US20240417398A1, “TETRAHYDRONAPTHYRIDINE AND RELATED ANALOGS FOR INHIBITING YAP/TAZ-TEAD” (SpringWorks Therapeutics, Inc., priority 2023, published 2024) come the findings set out here.

Assay [1] relates to YAP/TAZ-TEAD transcription. Description: Reporter gene assay for measuring the inhibition of YAP/TAZ-TEAD transcription (TEAD-responsive element luciferase reporter, Hek293T cells). The conditions noted are these: Homo sapiens, HEK-293T, 24 h, Hek293T cells transfected with TEAD-responsive element luciferase reporter, 24 hours incubation. It is filed as cell-based. The procedure: Hek293T cells were cultured in DMEM supplemented with 10% fetal bovine serum, Sodium pyruvate, Sodium bicarbonate, L-glutamine. The cells were harvested and transiently transfected with TEAD-responsive element luciferase reporter. Transfected cells were plated in 384-well plate containing pre-diluted compounds. After 24 hours incubation at 37° C./5% CO2, assay plates were cooled to room temperature and levelled to an equal volume per well, prior to the addition of 25 uL luciferase substrate SteadyLite (Perkin Elmer)/well. The plate was shaken for 10 min at 600 rpm, centrifuged for 1 min at 500 rpm and measured with an Envision reader (PerkinElmer). The amount of relative light units produced by the TEAD reporter was used to calculate the percentage of inhibition.
The percent of reporter inhibition was calculated in the presence of a positive control inhibitor (100% inhibition) versus a condition with the presence of the vehicle basal activity of the reporter (0% inhibition). The ability of a test compound to inhibit this activity was determined as: Percentage inhibition=[1-((RLU determined in the presence of vehicle−RLU determined for sample with test compound present) divided by (RLU determined in the presence of vehicle−RLU determined for sample with positive control inhibitor))]*100.
The activities of example compounds tested are depicted in Table 3. The activity ranges A, B and C refer to IC50 values in the reporter gene assay as follows: “A”: IC50<1 μM; “B”: 1 μM≤IC50 10 μM and “C”: IC50>10 μM; NT=not tested.
For orientation: Reporter assays use an easily measured gene product as a stand-in for the process of interest.

The subject of assay [2] is NCI-H226. Description: Mesothelioma cell line proliferation assay (ATPlite), NCI-H226. It is filed as cell-based. The conditions noted are these: NCI-H226 cells, 6 days with compound, ATPlite cell viability. The procedure: Mesothelioma cell lines, NCI-H226 and NCI-H2052 (both sourced from the ATCC cell culture collection) were plated in 96-well plates (Corning® 96 Well White Polystyrene Microplate clear flat bottom, white polystyrene (TC-Treated)), at 1500 cells/well in full medium (RPMI 1640 ATCC modification with L-glutamine, HEPES, Phenol Red, Sodium Pyruvate, High glucose, Low sodium bicarbonate and 10% fetal bovine serum). Cells were incubated overnight at 37° C. in an incubator with 5% CO2. Then compounds, dissolved in DMSO, were added in dose-response. Cells were incubated with compound dilutions for another 6 days at 37° C. in an incubator with 5% CO2. Cell viability was quantitated using the ATPlite kit (Perkin-Elmer) and the luminescence was read-out using an Envision instrument (Perkin-Elmer). The amount of relative light units produced using the ATPlite kit was used to calculate percent of inhibition.
The activities of some example compounds are depicted in Table 4. The activity ranges A, B and C refer to EC50 values in the mesothelioma cell line proliferation assay as described as follows: “A”: EC50<1 μM; “B”: 1 μM≤EC50<10 μM and “C”: EC50>10 μM; NT: not tested.

As a reminder, the IC50 is the point on the concentration scale where inhibition reaches its midpoint. A higher IC50 goes with a need for much substance. By EC50 is commonly meant the midpoint of the concentration-response curve. Turning to `C=CC(=O)NCC1Cc2c(OCc3cc[nH]c(=O)c3)cccc2N(c2ccc(C(F)(F)F)cc2)C1` (single isomer, unassigned) [Cpd. No. 6-En1, (R)- or (S)-N-((5-((2-oxo-1,2-dihydropyridin-4-yl)methoxy)-1-(4-(trifluoromethyl)phenyl)-1,2,3,4-tetrahydroquinolin-3-yl)methyl)acrylamide], the IC50 in assay [1] was less than 1 µM. The EC50 in assay [2] was less than 1 µM. `CC(=O)N(CC(=O)O)Cc1cc2c(c(-c3ccc(C(F)(F)F)cc3)c1)CNCC2` [Cpd. No. 37, N-acetyl-N-((8-(4-(trifluoromethyl)phenyl)-1,2,3,4-tetrahydroisoquinolin-6-yl)methyl)glycine] came in with an IC50 in assay [1] greater than 10 µM. In assay [1], `O=C(CC(F)(F)F)NCC1Cc2ncccc2N(c2ccc(C(F)(F)F)cc2)C1` (centres unmarked) [Cpd. No. 38, 3,3,3-trifluoro-N-((1-(4-(trifluoromethyl)phenyl)-1,2,3,4-tetrahydro-1,5-naphthyridin-3-yl)methyl)propanamide] registered an IC50 of less than 1 µM. The same measure, in the same setting: under `CC(C)C(=O)NCC1Cc2ncccc2N(c2ccc(C(F)(F)F)cc2)C1` (centres unmarked) [Cpd. No. 39, N-((1-(4-(trifluoromethyl)phenyl)-1,2,3,4-tetrahydro-1,5-naphthyridin-3-yl)methyl)isobutyramide] stands less than 1 µM; under `O=C(NCC1Cc2ncccc2N(c2ccc(C(F)(F)F)cc2)C1)c1ccccc1` (centres unmarked) [Cpd. No. 40, N-((1-(4-(trifluoromethyl)phenyl)-1,2,3,4-tetrahydro-1,5-naphthyridin-3-yl)methyl)benzamide], 1 to 10 µM.

`C=CC(=O)N1CCN(C2Cc3ccccc3N(c3ccc(C(F)(F)F)cc3)C2)CC1` (centres unmarked) [Cpd. No. 41, 1-(4-(1-(4-(trifluoromethyl)phenyl)-1,2,3,4-tetrahydroquinolin-3-yl)piperazin-1-yl)prop-2-en-1-one] gave an IC50 in assay [1] of less than 1 µM. `CC(=O)NCC1Cc2nc(C(F)(F)F)ccc2N(c2ccc(C(F)(F)F)cc2)C1` (centres unmarked) [Cpd. No. 42, N-((6-(trifluoromethyl)-1-(4-(trifluoromethyl)phenyl)-1,2,3,4-tetrahydro-1,5-naphthyridin-3-yl)methyl)acetamide]: the IC50 in assay [1] was less than 1 µM.

With `CNC(=O)NCC1Cc2ncccc2N(c2ccc(C(F)(F)F)cc2)C1` (centres unmarked) [Cpd. No. 43, 1-methyl-3-((1-(4-(trifluoromethyl)phenyl)-1,2,3,4-tetrahydro-1,5-naphthyridin-3-yl)methyl)urea], the IC50 in assay [1] is less than 1 µM. Consider `CC(=O)NCC1Cc2ncc(Br)cc2N(c2ccc(C(F)(F)F)cc2)C1` (centres unmarked) [Cpd. No. 44, N-((7-bromo-1-(4-(trifluoromethyl)phenyl)-1,2,3,4-tetrahydro-1,5-naphthyridin-3-yl)methyl)acetamide], for which the IC50 in assay [1] was less than 1 µM. On to `CC(=O)NCC1Cc2nc(N)ccc2N(c2ccc(C(F)(F)F)cc2)C1` (centres unmarked) [Cpd. No. 45, N-((6-amino-1-(4-(trifluoromethyl)phenyl)-1,2,3,4-tetrahydro-1,5-naphthyridin-3-yl)methyl)acetamide], for which the IC50 in assay [1] was less than 1 µM.

In assay [1], `CC(=O)NCc1cc2c(c(-c3ccc(C(F)(F)F)cc3)c1)CN(C)CC2` [Cpd. No. 46, N-((2-methyl-8-(4-(trifluoromethyl)phenyl)-1,2,3,4-tetrahydroisoquinolin-6-yl)methyl)acetamide] showed an IC50 greater than 10 µM. Still for that read-out and setting: under `CC(=O)NCC1(C)Cc2ncccc2N(c2ccc(C(F)(F)F)cc2)C1` (centres unmarked) [Cpd. No. 47, N-((3-methyl-1-(4-(trifluoromethyl)phenyl)-1,2,3,4-tetrahydro-1,5-naphthyridin-3-yl)methyl)acetamide] stands less than 1 µM. `CC(=O)NCC1Cc2c(ccc(=O)n2C)N(c2ccc(C(F)(F)F)cc2)C1` (centres unmarked) [Cpd. No. 48, N-((5-methyl-6-oxo-1-(4-(trifluoromethyl)phenyl)-1,2,3,4,5,6-hexahydro-1,5-naphthyridin-3-yl)methyl)acetamide] came in with an IC50 in assay [1] greater than 10 µM. Still for that read-out and setting: under `CC(=O)NCC1Cc2ncc(N)cc2N(c2ccc(C(F)(F)F)cc2)C1` (centres unmarked) [Cpd. No. 49, N-((7-amino-1-(4-(trifluoromethyl)phenyl)-1,2,3,4-tetrahydro-1,5-naphthyridin-3-yl)methyl)acetamide] stands 1 to 10 µM; under `CC(=O)NCC1Cc2ncc(F)cc2N(c2ccc(C(F)(F)F)cc2)C1` (centres unmarked) [Cpd. No. 50, N-((7-fluoro-1-(4-(trifluoromethyl)phenyl)-1,2,3,4-tetrahydro-1,5-naphthyridin-3-yl)methyl)acetamide], less than 1 µM.

In assay [1], `CC(=O)NCC1Cc2ncc(Cl)cc2N(c2ccc(C(F)(F)F)cc2)C1` (centres unmarked) [Cpd. No. 51, N-((7-chloro-1-(4-(trifluoromethyl)phenyl)-1,2,3,4-tetrahydro-1,5-naphthyridin-3-yl)methyl)acetamide] returned an IC50 of less than 1 µM.

Molecule `CC(=O)NCC1Cc2nc(N(C)C)ccc2N(c2ccc(C(F)(F)F)cc2)C1` (centres unmarked) [Cpd. No. 52, N-((6-(dimethylamino)-1-(4-(trifluoromethyl)phenyl)-1,2,3,4-tetrahydro-1,5-naphthyridin-3-yl)methyl)acetamide] came in with an IC50 in assay [1] of less than 1 µM. In assay [1], `CC(=O)NCC1Cc2ncccc2N(c2ccc(C(F)(F)F)cn2)C1` (centres unmarked) [Cpd. No. 53, N-((1-(5-(trifluoromethyl)pyridin-2-yl)-1,2,3,4-tetrahydro-1,5-naphthyridin-3-yl)methyl)acetamide] gave an IC50 of 1 to 10 µM.

As to `CC(=O)NCC1Cc2c(ccn(C)c2=O)N(c2ccc(C(F)(F)F)cc2)C1` (centres unmarked) [Cpd. No. 54, N-((6-methyl-5-oxo-1-(4-(trifluoromethyl)phenyl)-1,2,3,4,5,6-hexahydro-1,6-naphthyridin-3-yl)methyl)acetamide], in assay [1], the IC50 is less than 1 µM.

In turn, `CCc1ccc2c(n1)CC(CNC(C)=O)CN2c1ccc(C(F)(F)F)cc1` (centres unmarked) [Cpd. No. 55, N-((6-ethyl-1-(4-(trifluoromethyl)phenyl)-1,2,3,4-tetrahydro-1,5-naphthyridin-3-yl)methyl)acetamide] gave an IC50 in assay [1] of less than 1 µM. In turn, `CC(=O)NCC1Cc2nccnc2N(c2ccc(C(F)(F)F)cc2)C1` (centres unmarked) [Cpd. No. 56, N-((5-(4-(trifluoromethyl)phenyl)-5,6,7,8-tetrahydropyrido[2,3-b]pyrazin-7-yl)methyl)acetamide] came in with an IC50 in assay [1] of less than 1 µM. With `CC(=O)NCC1Cc2nc(C3CC3)ccc2N(c2ccc(C(F)(F)F)cc2)C1` (centres unmarked) [Cpd. No. 57, N-((6-cyclopropyl-1-(4-(trifluoromethyl)phenyl)-1,2,3,4-tetrahydro-1,5-naphthyridin-3-yl)methyl)acetamide], the IC50 in assay [1] is less than 1 µM.

Regarding `CC(=O)NCC1Cc2nc(C#N)ccc2N(c2ccc(C(F)(F)F)cc2)C1` (centres unmarked) [Cpd. No. 58, N-((6-cyano-1-(4-(trifluoromethyl)phenyl)-1,2,3,4-tetrahydro-1,5-naphthyridin-3-yl)methyl)acetamide], the concentration for half-maximal inhibition (IC50) in assay [1] is greater than 10 µM. In assay [1], `CC(=O)NCC1Cc2nc(C(N)=O)ccc2N(c2ccc(C(F)(F)F)cc2)C1` (centres unmarked) [Cpd. No. 59, 7-(acetamidomethyl)-5-(4-(trifluoromethyl)phenyl)-5,6,7,8-tetrahydro-1,5-naphthyridine-2-carboxamide] had an IC50 greater than 10 µM.

`CC(=O)NCC1Cc2nc(OC(F)F)ccc2N(c2ccc(C(F)(F)F)cc2)C1` (centres unmarked) [Cpd. No. 60, N-((6-(difluoromethoxy)-1-(4-(trifluoromethyl)phenyl)-1,2,3,4-tetrahydro-1,5-naphthyridin-3-yl)methyl)acetamide] showed an IC50 in assay [1] of less than 1 µM. `CC(=O)NCC1Cc2nc(C(F)F)ccc2N(c2ccc(C(F)(F)F)cc2)C1` (centres unmarked) [Cpd. No. 61, N-((6-(difluoromethyl)-1-(4-(trifluoromethyl)phenyl)-1,2,3,4-tetrahydro-1,5-naphthyridin-3-yl)methyl)acetamide] displayed an IC50 in assay [1] of 1 to 10 µM. In turn, `CC(=O)NCC1Cc2nc(Br)ccc2N(c2ccc(C(F)(F)F)cc2)C1` (centres unmarked) [Cpd. No. 62, N-((6-bromo-1-(4-(trifluoromethyl)phenyl)-1,2,3,4-tetrahydro-1,5-naphthyridin-3-yl)methyl)acetamide] came in with an IC50 in assay [1] of less than 1 µM. Regarding `C#Cc1ccc2c(n1)CC(CNC(C)=O)CN2c1ccc(C(F)(F)F)cc1` (centres unmarked) [Cpd. No. 63, N-((6-ethynyl-1-(4-(trifluoromethyl)phenyl)-1,2,3,4-tetrahydro-1,5-naphthyridin-3-yl)methyl)acetamide], the IC50 in assay [1] is less than 1 µM.
